Measurements as given in patent US20200069583A1, “IN SITU PHASE CHANGE GEL SUSTAINED-RELEASE SYSTEM FOR SMALL MOLECULE DRUG AND PREPARATION METHOD THEREOF” (SICHUAN UNIVERSITY, priority 2017, published 2020).
Counter-ions that a name gives are not always drawn.

Tests used:
[1] = Cmax of other small molecule drugs in plasma, preparation versus original drug solution (Experimental Example 7); type: in vivo; conditions: male SD rats, subcutaneous; for Cmax: Sprague-Dawley (SD), rat, sc; for Phospholipid Span sustained release preparation Cmax: drug in preparation made by prescription and method of Example 1
Description: In vivo experiments in animals were used to investigate the effects of other small molecule drugs on inhibiting burst release. […] The obtained phospholipid Span sustained release preparation and original drug solution of the other small molecule drugs (each drug was formulated with water, ethanol or DMSO for injection, depending on the specific solubility) were injected subcutaneously into male SD rats, whose blood was taken at regular intervals. The C. of the small molecule drugs in plasma was determined by high-performance liquid chromatography-mass spectrometry (LC-MS/MS), thereby investigating the effect on inhibiting burst release.

[2] = In vivo pharmacokinetics of dabigatran etexilate preparations, subcutaneous (Experimental Example 5); conditions: male, Sprague-Dawley (SD), rat, plasma, sc, SD rats, solution 11.4 mg/kg, gels 80 mg/kg
Description: At the scheduled time point, blood was taken from the rat eye and placed in a heparin sodium anticoagulated test tube. After the sample was processed, the blood concentration was measured by LC-MS/MS.

[3] = In vivo pharmacokinetics of 2,4-dinitrophenol preparations, subcutaneous (Experimental Example 4); parameters: species or system male SD rats
Description: The product of Example 1 was injected subcutaneously into male SD rats, whose blood was taken at regular intervals. The content of 2,4-dinitrophenol in plasma was determined by high-performance liquid chromatography-mass spectrometry (LC-MS/MS), thereby investigating the sustained release effect thereof.
200-220 g of SD rats were randomly divided into three groups, solution group (Test Example 4 in Experimental Example 1), phospholipid Span gel group (Example 1), and high-concentration phospholipid gel group (prepared according to patent CN102526753A). There were 6 rats in each group and they were injected subcutaneously at the dosage of 12.5 mg/kg. At the scheduled time point, blood was taken from the rat eye and placed in a heparin sodium anticoagulated test tube. After the sample was processed, the blood concentration was measured by LC-MS/MS injection.
The fomulation of the high-concentration phospholipid gel sustained release preparation (patent CN102526753A) is as follows: […]

[4] = Blood concentration of 2,4-dinitrophenol in rats after subcutaneous dosing, surfactant comparison (Experimental Example 1); conditions: Sprague-Dawley (SD), rat, in vivo, sc, 12.5 mg/kg 2,4-dinitrophenol, LC-MS/MS, surfactant 3.5 g varied
Description: The following test was carried out in accordance with the preparation method of Example 1, except that the Span in the prescription of Example 1 was replaced with glyceryl dioleate (Test Example 1), Tween (Test Example 2) and sucrose acetate isobutyrate (Test Example 3). At the same time, the original drug solution group was designed (Test Example 4, 50 mg of the drug was dissolved in 10 mL of phosphate buffer (pH=7.6), and a solution of the same concentration as in Example 1 was prepared).
200-220 g of SD rats were randomly divided into five groups, 6 rats in each group, and were administered subcutaneously with 12.5 mg/kg dosage of 2,4-dinitrophenol (Example 1, Test Example 1, Test Example 2, Test Example 3 and Test Example 4). At the scheduled time point, blood was taken from the rat eye and placed in a heparin sodium anticoagulated test tube. After the sample was processed, the blood concentration was measured by LC-MS/MS.

[5] = drug in preparation made by prescription and method of Example 1, read-out: Phospholipid Span sustained release preparation Cmax
[6] = original drug solution in water, ethanol or DMSO for injection
[7] = in vivo, drug in preparation made by prescription and method of Example 1, read-out: Phospholipid Span sustained release preparation Cmax

Work on `CN(C)C(=N)N=C(N)N` [Metformin hydrochloride] yielded a Cmax [1, 5] of 820 ± 90 ng/mL.
For `NS(=O)(=O)c1cc2c(cc1C(F)(F)F)NCNS2(=O)=O` [Hydroflumethiazido], the “Phospholipid Span sustained release preparation Cmax” value [1] was 870 ± 520 ng/mL and the “Original drug Cmax” value [1, 6] was 5780 ± 2060 ng/mL.
`C[C@@H]1C[C@H]2[C@@H]3CCC4=CC(=O)C=C[C@]4(C)[C@@]3(F)[C@@H](O)C[C@]2(C)[C@@]1(O)C(=O)CO` [Dexamethasone] gave a Cmax ([1]; male, drug in preparation made by prescription and method of Example 1, read-out: Phospholipid Span sustained release preparation Cmax) of 130 ± 50 ng/mL and a Cmax ([1]; male, original drug solution in water, ethanol or DMSO for injection, read-out: Original drug Cmax) of 530 ± 120 ng/mL.
For `COc1cccc2c1C(=O)c1c(O)c3c(c(O)c1C2=O)C[C@@](O)(C(=O)CO)C[C@@H]3O[C@H]1C[C@H](N)[C@H](O)[C@H](C)O1` [Doxorubicin], the Cmax [1, 5] was 30 ± 10 ng/mL.
Work on `CC(=O)Oc1ccccc1C(=O)O` [Aspirin] yielded a Cmax [1, 5] of 14600 ± 3120 ng/mL.
For `NC(=O)N1c2ccccc2C=Cc2ccccc21` [Carbamazepine], the Cmax [1, 5] was 4460 ± 570 ng/mL.
`CCCCCCOC(=O)NC(=N)c1ccc(NCc2nc3cc(C(=O)N(CCC(=O)OCC)c4ccccn4)ccc3n2C)cc1` [Solution group, dabigatran etexilate] showed an AUC(0-t) [2] of 1970 ± 474 ng·h/mL, a Cmax [2] of 244 ± 31.5 ng/mL and a Tmax [2] of 3.18 ± 0.21 h. For the same compound, the half-life [2] was 5.21 ± 0.83 h, the MRT last ([2]; read-out: MRT0-t) was 7.86 ± 1.14 h and the “AUC (0→∞)” value ([3]; SD rats, subcutaneous, 12.5 mg/kg, 2,4-dinitrophenol) was 10.19 ± 1.11 mg·days/L.
With `COCCOC(=O)C1=C(C)NC(C)=C(C(=O)OC(C)C)C1c1cccc([N+](=O)[O-])c1` (stereo not shown) [Nimodipine] the Cmax [1, 5] was 1510 ± 670 ng/mL.
In the case of `CCC1(c2ccccc2)C(=O)NC(=O)NC1=O` [Phenobarbital], the Cmax [1, 7] is reported as 2510 ± 680 ng/mL.
In the case of `O=[N+]([O-])c1ccc(O)c([N+](=O)[O-])c1` [Test Example4, 2,4-dinitrophenol], the Cmax ([3]; male, Sprague-Dawley (SD), rat, in vivo, sc, 12.5 mg/kg, rats, subcutaneous, same dose, 2,4-dinitrophenol) is reported as roughly 54500 ng/mL, the “Duration of drug release” value ([3]; rats, same dose, original drug group) is reported as 24 h and the Cmax [4] is reported as 54500 ng/mL.
`Cn1c(=O)c2[nH]cnc2n(C)c1=O` [theophylline] gave a Cmax [1, 7] of 1540 ± 320 ng/mL.
For `C/C=C1\[C@H]2C=C(C)C[C@]1(N)c1ccc(=O)[nH]c1C2` [Huperzine A], the “Phospholipid Span sustained release preparation Cmax” value [1] was 1330 ± 220 ng/mL and the “Original drug Cmax” value [1, 6] was 13870 ± 2860 ng/mL.
